Results taken from US8609608B2, “Antimicrobial peptides” (C3 Jian, Inc., priority 2007, dated 2013).
Where no end group is shown, it is not given here.

What was measured:
V. atypica PK1910 = assay type: cell-based, Veillonella atypica
Method: (§1) S. mutans clinical isolates UA140 (32), UA159 (1), T8 (33), ATCC 25175, GS5 (Kuramitsu and Ingersoll (1977) Infect Immun., 17: 330-337), and all gram-positive strains listed below (see Table 9) were grown under anaerobic conditions in brain heart infusion or Todd-Hewitt (TH) broth (Difco) overnight at 37° C. prior to use (Eckert et al. (2006) Antimicrob. Agents Chemother. 50: 3651-3657). Veillonella atypica PK1910 was grown in Veillonella medium (Egland et al. (2004) Proc. Natl. Acad. Sci., USA, 101: 16917-16922). All strains were grown in an anaerobic atmosphere of 80% N2, 10% CO2, and 10% H2.
(§2) Antibacterial growth inhibition assays were performed using sterile 96-well plates in a final volume of 100 μl, TH or Veillonella medium as described previously (Qi et al. (2005) FEMS Microbial Lett. 251: 321-326). Briefly, bacterial cells were grown overnight to an optical density at 600 nm of 0.75 to 0.8 (corresponding to 1×10^8 CFU/ml) and then diluted to 1×10^5 CFU/ml in broth and aliquoted onto plates. An appropriate volume of peptide stock solution (5 to 20 mg/ml, in water or methanol, depending on solubility) was then added to the first column of the plate to give 500 μg/ml or 512 μg/ml, followed by serial 1:2 dilutions across the plate to give wells containing peptides ranging from 500 to 1.95 μg/ml or 512 to 2 μg/ml. Methanol alone was also added to control for the effects of the solvent. The plates were then incubated at 37° C. under anaerobic conditions for 16 to 20 h without shaking, and the MIC was determined as the concentration of peptide present in the last clear well after visual inspection. Up to 5% (vol/vol) methanol was found not to be antimicrobial (data not shown). MICs were determined in triplicate for all bacteria.

S. gordonii Challis DL1 = assay type: cell-based, Streptococcus gordonii
Method: as §1, §2

[1] = test system: clinical isolates of S. mutans; assay type: cell-based, Streptococcus mutans; conditions: clinical isolates of
Method: as §1, §2

S. sanguinis NY101 = assay type: cell-based, Streptococcus sanguinis
Method: as §1, §2

S. mitis ATCC 903 = assay type: cell-based, Streptococcus mitis
Method: as §1, §2

L. casei ATCC 4646 = assay type: cell-based, Lactobacillus casei
Method: as §1, §2

S. mutans UA159 = experiment: Killing kinetics (time-kill assay); assay type: cell-based, Streptococcus mutans; conditions: peptide 25 μg/ml; for TC, time required to kill 3 log10 of recoverable CFU/ml: UA159
Method: The determination of killing kinetics for fusion and parental peptides was conducted essentially as described previously (Eckert et al. (2006) Antimicrob. Agents Chemother. 50: 1480-1488). Briefly, medium-diluted overnight UA159 cultures (0.5×10^6 to 1×10^6 CFU/ml) were challenged with peptide at a concentration of 25 μg/ml, and at the indicated time intervals (“0 min” indicates untreated samples), a 10-μL aliquot was removed and the surviving CFU were rescued by dilution (1:50) into growth medium and then spread on TH agar plates for quantitation. […] Kinetics were determined by recording the average number of surviving CFU/ml versus incubation time in the presence of peptide (all assays were independently repeated three to five times). For Table 8, time to bactericidal killing (TC) values were defined as the time required for the level of surviving CFU/ml from peptide-treated cultures to fall 3 log10 below the levels of recovered S. mutans CFU/ml from untreated samples.

Question: “FHFFHHFFHFFHHFKLLK [AA-5, FHFFHHFFHFFHHFKLLK]” was tested. Which “MIC pH 4.9” value (S. mutans) did it give?
Answer: 28.125 μM

Question: And the “MIC pH 7.4” value (S. mutans)?
Answer: >125 μM

Question: With FHYFWHWFHRF [AA-6, FHYFWHWFHRF] as the substance, how does the “MIC pH 4.9” value (S. mutans) read?
Answer: >50 μM

Question: And the “MIC pH 7.4” value (S. mutans)?
Answer: 125 μM

Question: For “HHFFHHFHHFFHHF-NH2 [AA-1, HHFFHHFHHFFHHF*]”, which “MIC pH 4.9” value (S. mutans) is on record?
Answer: 12.5 μM

Question: And the “MIC pH 7.4” value (S. mutans)?
Answer: >125 μM

Question: With “IKQLLHFFQRFGGGRWRWRWF-NH2 [FBRW-15, IKQLLHFFQRF-GGG-RWRWRWF*]” as the substance, how does the “MIC V. atypica PK1910” value (V. atypica PK1910) read?
Answer: 8 µg/mL

Question: And the “MIC S. gordonii Challis DL1” value (S. gordonii Challis DL1)?
Answer: 32 µg/mL

Question: And the “MIC (fusion library peptides)” value [1]?
Answer: 4 to 16 µg/mL

Question: And the “MIC S. sanguinis NY101” value (S. sanguinis NY101)?
Answer: 16 µg/mL

Question: What about the “MIC S. mitis ATCC 903” value (S. mitis ATCC 903) of the same substance?
Answer: 64 µg/mL

Question: And the “MIC L. casei ATCC 4646” value (L. casei ATCC 4646)?
Answer: 16 µg/mL

Question: For KLLKGATFHFFHHFFHFFHHF [AA-3], which “MIC pH 4.9” value (S. mutans) is on record?
Answer: 6.25 μM

Question: What about the “MIC pH 7.4” value (S. mutans) of the same substance?
Answer: >125 μM

Question: What does the source list for “LKRFLKWFKRF-NH2 [Peptide B-34, LKRFLKWFKRF*]”?
Answer: MIC V. atypica PK1910 (V. atypica PK1910): 32 µg/mL; MIC S. gordonii Challis DL1 (S. gordonii Challis DL1): 32 µg/mL; MIC [1]: 8 to 24 µg/mL; MIC S. sanguinis NY101 (S. sanguinis NY101): 16 µg/mL; MIC S. mitis ATCC 903 (S. mitis ATCC 903): 64 µg/mL; MIC L. casei ATCC 4646 (L. casei ATCC 4646): 16 µg/mL

Question: What does the source list for “LKRFLKWFKRFGGGRWRWRWF-NH2 [FBRW-16, LKRFLKWFKRF-GGG-RWRWRWF*]”?
Answer: MIC V. atypica PK1910 (V. atypica PK1910): 8 µg/mL; MIC S. gordonii Challis DL1 (S. gordonii Challis DL1): 64 µg/mL; MIC (fusion library peptides) [1]: 4 to 16 µg/mL; MIC S. sanguinis NY101 (S. sanguinis NY101): 16 µg/mL; MIC S. mitis ATCC 903 (S. mitis ATCC 903): 64 µg/mL; MIC L. casei ATCC 4646 (L. casei ATCC 4646): 16 µg/mL

Question: With LYHFLHWFQRF [AA-7, LYHFLHWFQRF] as the substance, how does the “MIC pH 4.9” value (S. mutans) read?
Answer: >50 μM

Question: And the “MIC pH 7.4” value (S. mutans)?
Answer: 125 μM

Question: What does the source list for “RRRWWWFASASARRRWWWF-NH2 [FRW-3, RRRWWWF-ASASA-RRRWWWF*]”?
Answer: MIC (fusion library peptides) [1]: 32 µg/mL; TC, time required to kill 3 log10 of recoverable CFU/ml (S. mutans UA159): 480 min

Question: Which “MIC (fusion library peptides)” value [1] does the source give for “RRRWWWFGGGRRRWWWF-NH2 [FRW-5, RRRWWWF-GGG-RRRWWWF*]” here?
Answer: 16 µg/mL

Question: What about the “TC, time required to kill 3 log10 of recoverable CFU/ml” value (S. mutans UA159) of the same substance?
Answer: 270 min

Question: How did the “MIC (fusion library peptides)” value [1] turn out when “RRRWWWFPSGSPRRRWWWF-NH2 [FRW-4, RRRWWWF-PSGSP-RRRWWWF*]” was run?
Answer: 32 µg/mL

Question: And the “TC, time required to kill 3 log10 of recoverable CFU/ml” value (S. mutans UA159)?
Answer: 420 min

Question: With “RWRRLLKKLHHLLH-NH2 [α-11, RWRRLLKKLHHLLH*]” as the substance, how does the “MIC V. atypica PK1910” value (V. atypica PK1910) read?
Answer: 4 µg/mL

Question: What about the “MIC S. gordonii Challis DL1” value (S. gordonii Challis DL1) of the same substance?
Answer: 16 µg/mL

Question: And the MIC [1]?
Answer: 8 µg/mL

Question: And the “MIC S. sanguinis NY101” value (S. sanguinis NY101)?
Answer: 16 µg/mL

Question: What about the “MIC S. mitis ATCC 903” value (S. mitis ATCC 903) of the same substance?
Answer: 32 µg/mL

Question: And the “MIC L. casei ATCC 4646” value (L. casei ATCC 4646)?
Answer: 16 µg/mL

Question: “RWRRLLKKLHHLLHGGGFKKFWKWFRRF-NH2 [FBα-20, RWRRLLKKLHHLLH-GGG-FKKFWKWFRRF*]” was tested. Which “MIC V. atypica PK1910” value (V. atypica PK1910) did it give?
Answer: 8 µg/mL

Question: And the “MIC S. gordonii Challis DL1” value (S. gordonii Challis DL1)?
Answer: 16 µg/mL

Question: What about the “MIC (fusion library peptides)” value [1] of the same substance?
Answer: 4 to 8 µg/mL

Question: And the “MIC S. sanguinis NY101” value (S. sanguinis NY101)?
Answer: 16 µg/mL

Question: What about the “MIC S. mitis ATCC 903” value (S. mitis ATCC 903) of the same substance?
Answer: 32 µg/mL

Question: What about the “MIC L. casei ATCC 4646” value (L. casei ATCC 4646) of the same substance?
Answer: 8 µg/mL

Question: Which “MIC (fusion library peptides)” value [1] does the source give for “RWRRLLKKLHHLLHGGGIKQLLHFFQRF-NH2 [FBα-21, RWRRLLKKLHHLLH-GGG-IKQLLHFFQRF*]” here?
Answer: 16 µg/mL

Question: And the “fewer CFU/ml recovered from fusion peptide-treated cultures than from parental peptide-treated samples” value (S. mutans UA159; after 30 min)?
Answer: more than 2 log10

Question: What does the source list for RWRWRWF-NH2 [Peptide 2C-4, RWRWRWF*]?
Answer: MIC V. atypica PK1910 (V. atypica PK1910): 64 µg/mL; MIC S. gordonii Challis DL1 (S. gordonii Challis DL1): 32 µg/mL; MIC [1]: 4 to 8 µg/mL; MIC S. sanguinis NY101 (S. sanguinis NY101): 32 µg/mL; MIC S. mitis ATCC 903 (S. mitis ATCC 903): 32 µg/mL; MIC L. casei ATCC 4646 (L. casei ATCC 4646): 32 µg/mL

Question: What does the source list for “RWRWRWFASASARWRWRWF-NH2 [FRW-9, RWRWRWF-ASASA-RWRWRWF*]”?
Answer: MIC (fusion library peptides) [1]: 16 µg/mL; TC, time required to kill 3 log10 of recoverable CFU/ml (S. mutans UA159): 45 min

Question: For “RWRWRWFGGGFKKFWKWFRRF-NH2 [FBRW-22, RWRWRWF-GGG-FKKFWKWFRRF*]”, which “MIC V. atypica PK1910” value (V. atypica PK1910) is on record?
Answer: 8 µg/mL

Question: And the “MIC S. gordonii Challis DL1” value (S. gordonii Challis DL1)?
Answer: 16 µg/mL

Question: What about the “MIC (fusion library peptides)” value [1] of the same substance?
Answer: 4 to 8 µg/mL

Question: What about the “MIC S. sanguinis NY101” value (S. sanguinis NY101) of the same substance?
Answer: 8 µg/mL

Question: And the “MIC S. mitis ATCC 903” value (S. mitis ATCC 903)?
Answer: 64 µg/mL

Question: And the “MIC L. casei ATCC 4646” value (L. casei ATCC 4646)?
Answer: 8 µg/mL

Question: What does the source list for “RWRWRWFGGGLKRFLKWFKRF-NH2 [FBRW-24, RWRWRWF-GGG-LKRFLKWFKRF*]”?
Answer: MIC V. atypica PK1910 (V. atypica PK1910): 16 µg/mL; MIC S. gordonii Challis DL1 (S. gordonii Challis DL1): 32 µg/mL; MIC (fusion library peptides) [1]: 8 µg/mL; MIC S. sanguinis NY101 (S. sanguinis NY101): 16 µg/mL; MIC S. mitis ATCC 903 (S. mitis ATCC 903): 64 µg/mL; MIC L. casei ATCC 4646 (L. casei ATCC 4646): 8 µg/mL
